Measured values from patent publication US4971967A, “Quinolinecarboxylic acid derivatives, antibacterial compositions and use” (Kanebo Ltd, priority 1989, dated 1990).
Values after ≈ are worked out from the molar mass of the structure shown.

What was measured:
[1] = tested on: clinically isolated methicillin resistant Staphylococcus aureus; test: MIC against clinically isolated methicillin resistant Staphylococcus aureus; assay type: cell-based; conditions: 54 strains
Description: The compounds (A) and (J) of the present invention and the known compound (X) were dissolved in 0.1 N aqueous sodium hydroxide, and the known compound (Y) in sterilized distilled water, to prepare a solution of 5000 μg/ml in concentration each. The above solutions were then diluted with sterilized distilled water to prepare a standard solution with a concentration of the test compound: 1000 μg/ml each. The test was carried out by a method appointed by Japan Society of Chemotherapy (ibidem) to measure minimum inhibitory concentration (MIC) against 54 strains of clinically isolated methicillin resistant Staphylococcus aureus, from which there were calculated a range of MIC (MICrange) of the test compound against these resistant strains, a minimum concentration for inhibiting the growth of the strains by 50% (MIC50) and a minimum concentration for inhibiting the growth of the strains by 90% (MIC90).

[2] = tested on: Morganella morganii IFO 3848; test: Antibacterial activity (MIC), Morganella morganii IFO 3848; assay type: cell-based; conditions: Morganella morganii, IFO3848, Morganella morganii IFO 3848, Gram -; read-out: Minimum inhibitory concentration (MIC)
Description: (§1) The compounds of the present invention (A, C, D, E, F, G, H, I, J, L, O and P) and the known compound (X) as reference were dissolved in 0.1 N aqueous sodium hydroxide to prepare a solution of 5000 μg/ml in concentration. The compounds of the present invention (B, K, M and N) and the known compound (Y) were dissolved in sterilized distilled water to prepare a solution of 5000 μg/ml in concentration. Each solution was diluted with sterilized distilled water to prepare a standard solution with a concentration of each test compound: 1000 μg/ml. The test was carried out by a method as appointed by Japan Society of Chemotherapy [cf. Chemotherapy, 29, 76-79 (1981)(TOKYO)].

[3] = tested on: Pseudomonas aeruginosa NCTC 10490; test: Antibacterial activity (MIC), P. aeruginosa NCTC 10490; assay type: cell-based; conditions: Pseudomonas aeruginosa, NCTC10490, Pseudomonas aeruginosa NCTC 10490, Gram -; read-out: Minimum inhibitory concentration (MIC)
Description: as §1

[4] = tested on: Enterobacter aerogenes ATCC 13048; test: Antibacterial activity (MIC), Enterobacter aerogenes ATCC 13048; assay type: cell-based; conditions: Klebsiella aerogenes, ATCC13048; Enterobacter aerogenes ATCC 13048, Gram -; read-out: Minimum inhibitory concentration (MIC)
Description: as §1

[5] = tested on: Staphylococcus aureus IID 803; test: Effect on treatment of general infectious disease, S. aureus IID 803 (Experiment 3); assay type: in vivo, ddY male mice infected with Staphylococcus aureus; conditions: IID803, 168 h, oral, 1 h after i.p. infection, 5.0×10^7 CFU/mouse, survival after one week
Description: Staphylococcus aureus IID 803 (5.0×10^7 CFU/mouse)
(§2) The test microorganisms were subjected to standing culture in Trypto-Soya Agar "Nissui" (made by Nissui Seiyaku K.K., Japan) at 37° C. for 16 to 18 hours. The culture was then diluted with PBS (Dulbecco's phosphate buffered saline) and mixed with an equivalent amount of 10% (w/v) Mucin (BACTO MUCIN BACTERIOLOGICAL, made by Difco Co.) to prepare a microorganism solution. The thus prepared microorganism solution (0.5 ml each) was intraperitoneally inoculated to ddY male mice (5 weeks age, weighing 25-28 g, 5 mice in each group), to infect the animals. One hour after the infection, the compound (A) or (J) of the present invention or the known compound (X) suspended in 1% (w/v) aqueous gum arabic or the known compound (Y) dissolved in sterilized distilled water was orally adiministered to mice.
(§3) The mice were daily observed for one week, and from the survival number of mice after one week, the 50% effective dose (ED50) was calculated by Weil method.

[6] = tested on: Proteus vulgaris OX-19; test: Antibacterial activity (MIC), Proteus vulgaris OX-19; assay type: cell-based; conditions: OX19; Proteus vulgaris OX-19, Gram -; read-out: Minimum inhibitory concentration (MIC)
Description: as §1

[7] = tested on: Staphylococcus aureus IID 803; test: Antibacterial activity (MIC), S. aureus IID 803; assay type: cell-based; conditions: IID803; Staphylococcus aureus IID 803, Gram +; read-out: Minimum inhibitory concentration (MIC)
Description: as §1

[8] = tested on: Serratia marcescens IAM 1184; test: Antibacterial activity (MIC), Serratia marcescens IAM 1184; assay type: cell-based; conditions: Serratia marcescens, IAM1184, Serratia marcescens IAM 1184, Gram -; read-out: Minimum inhibitory concentration (MIC)
Description: as §1

[9] = tested on: Acinetobacter calcoaceticus AC 54; test: Antibacterial activity (MIC), Acinetobacter calcoaceticus AC 54; assay type: cell-based; conditions: AC54; Acinetobacter calcoaceticus AC 54, Gram -; read-out: Minimum inhibitory concentration (MIC)
Description: as §1

[10] = tested on: Micrococcus luteus ATCC 9341; test: Antibacterial activity (MIC), Micrococcus luteus ATCC 9341; assay type: cell-based; conditions: ATCC9341; Micrococcus luteus ATCC 9341, Gram +; read-out: Minimum inhibitory concentration (MIC)
Description: as §1

[11] = tested on: Streptococcus faecalis IID 682; test: Antibacterial activity (MIC), Streptococcus faecalis IID 682; assay type: cell-based; conditions: Enterococcus faecalis, IID682, Streptococcus faecalis IID 682, Gram +; read-out: Minimum inhibitory concentration (MIC)
Description: as §1

[12] = tested on: Bacillus subtilis ATCC 6633; test: Antibacterial activity (MIC), Bacillus subtilis ATCC 6633; assay type: cell-based; conditions: Bacillus subtilis, ATCC6633, Bacillus subtilis ATCC 6633, Gram +; read-out: Minimum inhibitory concentration (MIC)
Description: as §1

[13] = tested on: Pseudomonas aeruginosa IFO 3445; test: Antibacterial activity (MIC), P. aeruginosa IFO 3445; assay type: cell-based; conditions: Pseudomonas aeruginosa, IFO3445, Pseudomonas aeruginosa IFO 3445, Gram -; read-out: Minimum inhibitory concentration (MIC)
Description: as §1

[14] = tested on: Pseudomonas aeruginosa E-2; test: Antibacterial activity (MIC), P. aeruginosa E-2; assay type: cell-based; conditions: E2; Pseudomonas aeruginosa E-2, Gram -; read-out: Minimum inhibitory concentration (MIC)
Description: as §1

[15] = tested on: Salmonella typhimurium IID 971; test: Antibacterial activity (MIC), Salmonella typhimurium IID 971; assay type: cell-based; conditions: Salmonella enterica; Salmonella typhimurium IID 971, Gram -; read-out: Minimum inhibitory concentration (MIC)
Description: as §1

[16] = tested on: Escherichia coli NIHJ JC-2; test: Antibacterial activity (MIC), E. coli NIHJ JC-2; assay type: cell-based; conditions: NIHJJC2; Escherichia coli NIHJ JC-2, Gram -; read-out: Minimum inhibitory concentration (MIC)
Description: as §1

[17] = tested on: Staphylococcus epidermidis IAM-1296; test: Antibacterial activity (MIC), S. epidermidis IAM-1296; assay type: cell-based; conditions: Staphylococcus epidermidis, IAM1296, Staphylococcus epidermidis IAM-1296, Gram +; read-out: Minimum inhibitory concentration (MIC)
Description: as §1

[18] = tested on: Proteus mirabilis IFO 3849; test: Antibacterial activity (MIC), Proteus mirabilis IFO 3849; assay type: cell-based; conditions: IFO3849; Proteus mirabilis IFO 3849, Gram -; read-out: Minimum inhibitory concentration (MIC)
Description: as §1

[19] = tested on: Staphylococcus aureus FDA 209P JC-1; test: Antibacterial activity (MIC), S. aureus FDA 209P JC-1; assay type: cell-based; conditions: FDA209P; Staphylococcus aureus FDA 209P JC-1, Gram +; read-out: Minimum inhibitory concentration (MIC)
Description: as §1

[20] = tested on: Escherichia coli KC-14; test: Antibacterial activity (MIC), E. coli KC-14; assay type: cell-based; conditions: KC14; Escherichia coli KC-14, Gram -; read-out: Minimum inhibitory concentration (MIC)
Description: as §1

[21] = tested on: Enterobacter cloacae 963; test: Antibacterial activity (MIC), Enterobacter cloacae 963; assay type: cell-based; conditions: Enterobacter cloacae, 963, Enterobacter cloacae 963, Gram -; read-out: Minimum inhibitory concentration (MIC)
Description: as §1

[22] = tested on: Pseudomonas aeruginosa E-2; test: Effect on treatment of general infectious disease, P. aeruginosa E-2 (Experiment 3); assay type: in vivo, ddY male mice infected with Pseudomonas aeruginosa; conditions: E2, 168 h, oral, 1 h after i.p. infection, 3.1×10^4 CFU/mouse, survival after one week
Description: Pseudomonas aeruginosa E-2 (3.1×10^4 CFU/mouse)
as §2, §3

[23] = tested on: Klebsiella pneumoniae PCI-602; test: Antibacterial activity (MIC), Klebsiella pneumoniae PCI-602; assay type: cell-based; conditions: PCI602; Klebsiella pneumoniae PCI-602, Gram -; read-out: Minimum inhibitory concentration (MIC)
Description: as §1

[24] = tested on: Citrobacter freundii NIHJ 10018-68; test: Antibacterial activity (MIC), Citrobacter freundii NIHJ 10018-68; assay type: cell-based; conditions: Citrobacter freundii, NIHJ10018, Citrobacter freundii NIHJ 10018-68, Gram -; read-out: Minimum inhibitory concentration (MIC)
Description: as §1

[25] = tested on: Shigella sonnei EW-33; test: Antibacterial activity (MIC), Shigella sonnei EW-33; assay type: cell-based; conditions: Shigella sonnei, EW33, Shigella sonnei EW-33, Gram -; read-out: Minimum inhibitory concentration (MIC)
Description: as §1

CC1COc2c(N3CCN(C)CC3)c(F)cc3c(=O)c(C(=O)O)cn1c23 (stereo not drawn) [Compound (X), 9-Fluoro-3-methyl-10-(4-methyl-1-piperazinyl)-7-oxo-2,3-dihydro-7H-pyrido[1,2,3-de][1,4]-benzoxazine-6-carboxylic acid, reference compound]
MIC [1]: 0.39 to 1.56 µg/mL (≈ 1.08 to 4.32 µM) | MIC50 ([1]; minimum concentration for inhibiting growth of the strains by 50%): 0.78 µg/mL (≈ 2.16 µM) | MIC90 ([1]; minimum concentration for inhibiting growth of the strains by 90%): 1.56 µg/mL (≈ 4.32 µM) | MIC [2]: 0.1 µg/mL (≈ 0.277 µM) | MIC [3]: 1.56 µg/mL (≈ 4.32 µM) | MIC [4]: 0.1 µg/mL (≈ 0.277 µM) | ED50 [5]: 14 mg/kg | MIC [6]: 0.05 µg/mL (≈ 0.138 µM) | MIC [7]: 0.39 µg/mL (≈ 1.08 µM) | MIC [8]: 0.78 µg/mL (≈ 2.16 µM) | MIC [9]: 0.39 µg/mL (≈ 1.08 µM) | MIC [10]: 3.13 µg/mL (≈ 8.66 µM) | MIC [11]: 1.56 µg/mL (≈ 4.32 µM) | MIC [12]: 0.1 µg/mL (≈ 0.277 µM) | MIC [13]: 1.56 µg/mL (≈ 4.32 µM) | MIC [14]: 1.56 µg/mL (≈ 4.32 µM) | MIC [15]: 0.05 µg/mL (≈ 0.138 µM) | MIC [16]: 0.1 µg/mL (≈ 0.277 µM) | MIC [17]: 0.78 µg/mL (≈ 2.16 µM) | MIC [18]: 0.39 µg/mL (≈ 1.08 µM) | MIC [19]: 0.39 µg/mL (≈ 1.08 µM) | MIC [20]: 0.1 µg/mL (≈ 0.277 µM) | MIC [21]: 0.2 µg/mL (≈ 0.553 µM) | ED50 [22]: 14 mg/kg | MIC [23]: 0.05 µg/mL (≈ 0.138 µM) | MIC [24]: 0.39 µg/mL (≈ 1.08 µM) | MIC [25]: 0.05 µg/mL (≈ 0.138 µM)
